Test results from ChEMBL document CHEMBL1135508, “Synthesis, SAR, and biological evaluation of oximino-piperidino-piperidine amides. 1. Orally bioavailable CCR5 receptor antagonists with potent anti-HIV activity” (J Med Chem, 2002).
pIC50, pKi: −log10 of the molar value.

What was measured:
U-87 MG = assay: Concentration required to inhibit the entry of HIV-1 reporter virus (ADA) into U-87 cells by 50%; format: functional, cell-based, U-87MG ATCC
Rattus norvegicus = assay: Area under curve value at 0-6 hr in rat pharmacokinetic screening after 10 mg/kg peroral dose; format: ADME, organism-based; design: time < 6 hr, dose 10 mg/kg, route oral; details: in vivo, po
[1] = biological target: T1, Muscarinic acetylcholine receptor M2 (Homo sapiens, UniProt P08172); assay: Inhibitory activity against Muscarinic acetylcholine receptor M2
T1 sequence (P08172 whole entry): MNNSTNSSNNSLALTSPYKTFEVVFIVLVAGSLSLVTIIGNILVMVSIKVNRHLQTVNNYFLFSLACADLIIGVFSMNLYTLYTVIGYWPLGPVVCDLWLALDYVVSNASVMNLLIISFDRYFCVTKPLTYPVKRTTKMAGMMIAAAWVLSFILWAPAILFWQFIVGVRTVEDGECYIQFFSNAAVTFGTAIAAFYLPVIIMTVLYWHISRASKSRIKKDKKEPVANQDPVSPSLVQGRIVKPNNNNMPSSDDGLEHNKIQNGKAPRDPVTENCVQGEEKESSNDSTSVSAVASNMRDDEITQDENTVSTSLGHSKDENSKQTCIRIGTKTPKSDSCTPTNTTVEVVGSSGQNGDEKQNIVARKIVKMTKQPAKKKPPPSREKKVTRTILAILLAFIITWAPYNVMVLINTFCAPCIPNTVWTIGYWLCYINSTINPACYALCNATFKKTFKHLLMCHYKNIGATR

[2] = Plasma clearance after IV administration at the dose 10/10 (IV/Po/mg/kg); format: ADME, organism-based; details: 10 mg/kg
[3] = T max after oral administration at the dose 10/10 (IV/Po/mg/kg); format: ADME, organism-based; details: in vivo, 10 mg/kg
[4] = C max after oral administration at the dose 10/10 (IV/Po/mg/kg); format: ADME, organism-based; details: in vivo, 10 mg/kg
[5] = Plasma clearance after IV administration at the dose 2/2 (IV/Po/mg/kg); format: ADME, organism-based; details: cercopithecidae, 2 mg/kg
[6] = T max after oral administration at the dose 2/2 (IV/Po/mg/kg); format: ADME, organism-based; details: cercopithecidae, in vivo, 2 mg/kg
[7] = Percent of bioavailability after oral administration at the dose 2/2 (IV/Po/mg/kg); format: ADME, organism-based; details: cercopithecidae, in vivo, 2 mg/kg, read-out: Bioavailabiility
[8] = Percent of bioavailability after oral administration at the dose 10/10 (IV/Po/mg/kg); format: ADME, organism-based; details: in vivo, 10 mg/kg, read-out: Bioavailabiility
[9] = Percent of Absorption after IV administration at the dose 10/10 (IV/Po/mg/kg); format: ADME, organism-based; details: in vivo, 10 mg/kg, read-out: Absorption
[10] = Half life (t 1/2) after IV administration at the dose 10/10 (IV/Po/mg/kg); format: ADME, organism-based; details: in vivo, 10 mg/kg
[11] = Half life (t 1/2) after IV administration at the dose 2/2 (IV/Po/mg/kg); format: ADME, organism-based; details: cercopithecidae, in vivo, 2 mg/kg
[12] = Percent of Absorption after IV administration at the dose 2/2 (IV/Po/mg/kg); format: ADME, organism-based; details: cercopithecidae, in vivo, 2 mg/kg, read-out: Absorption
[13] = C max after oral administration at the dose 2/2 (IV/Po/mg/kg); format: ADME, organism-based; details: cercopithecidae, in vivo, 2 mg/kg

CO/N=C(\c1ccc(Br)cc1)C1CCN(C2(C)CCN(C(=O)c3c(N)cccc3Cl)CC2)CC1
pIC50 (U-87 MG; Homo sapiens, U-87 MG): 9.22
AUC (Rattus norvegicus): 620 ng·h/mL

CCO/N=C(\c1ccc(Br)cc1)C1CCN(C2(C)CCN(C(=O)c3c(C)ccnc3C)CC2)CC1
pIC50 (U-87 MG; Homo sapiens, U-87 MG): 9.70
AUC (Rattus norvegicus): 2100 ng·h/mL

CO/N=C(\c1ccc(Br)cc1)C1CCN(C2(C)CCN(C(=O)c3c(C)cc[n+]([O-])c3C)CC2)CC1
pIC50 (U-87 MG; Homo sapiens, U-87 MG): 8.25
AUC (Rattus norvegicus): 2400 ng·h/mL

Cc1cccc(C)c1C(=O)N1CCC(C)(N2CCC(C(=O)c3ccc(Br)cc3)CC2)CC1
pIC50 (U-87 MG; Homo sapiens, U-87 MG): 7.92

Cc1cccc(C)c1C(=O)N1CCC(C)(N2CCC(Cc3ccc(Br)cc3)CC2)CC1
pKi [1]: 5.88
pIC50 (U-87 MG; Homo sapiens, U-87 MG): 8.00
AUC (Rattus norvegicus): 40 ng·h/mL

Cc1cccc(C)c1C(=O)N1CCC(C)(N2CCC(Cc3ccc(Cl)cc3)CC2)CC1
pIC50 (U-87 MG; Homo sapiens, U-87 MG): 7.64

COc1ccc(CC2CCN(C3(C)CCN(C(=O)c4c(C)cccc4C)CC3)CC2)cc1
pIC50 (U-87 MG; Homo sapiens, U-87 MG): 7.59

Cc1cccc(C)c1C(=O)N1CCC(C)(N2CCC(Cc3ccc(I)cc3)CC2)CC1
pIC50 (U-87 MG; Homo sapiens, U-87 MG): 8.05

Cc1cccc(C)c1C(=O)N1CCC(C)(N2CCC(/C(=N/O)c3ccc(Br)cc3)CC2)CC1
pIC50 (U-87 MG; Homo sapiens, U-87 MG): 8.00

CCO/N=C(\c1ccc(C(F)(F)F)cc1)C1CCN(C2(C)CCN(C(=O)c3c(C)cc[n+]([O-])c3C)CC2)CC1
pIC50 (U-87 MG; Homo sapiens, U-87 MG): 8.89
AUC (Rattus norvegicus): 2200 ng·h/mL

CCO/N=C(\c1ccc(S(C)(=O)=O)cc1)C1CCN(C2(C)CCN(C(=O)c3c(C)cc[n+]([O-])c3C)CC2)CC1
AUC (Rattus norvegicus): 0 ng·h/mL

CO/N=C(\c1ccc(Br)cc1)C1CCN(C2(C)CCN(C(=O)c3c(C)cccc3O)CC2)CC1
pIC50 (U-87 MG; Homo sapiens, U-87 MG): 8.40
AUC (Rattus norvegicus): 3000 ng·h/mL

CNC(=O)CO/N=C(\c1ccc(Br)cc1)C1CCN(C2(C)CCN(C(=O)c3c(C)cccc3C)CC2)CC1
pIC50 (U-87 MG; Homo sapiens, U-87 MG): 8.36

CO/N=C(\c1ccc(OC(F)(F)F)cc1)C1CCN(C2(C)CCN(C(=O)c3c(C)cc[n+]([O-])c3C)CC2)CC1
pIC50 (U-87 MG; Homo sapiens, U-87 MG): 8.29
AUC (Rattus norvegicus): 3300 ng·h/mL

Cc1cccc(C)c1C(=O)N1CCC(C)(N2CCC(Cc3ccc(S(C)(=O)=O)cc3)CC2)CC1
pIC50 (U-87 MG; Homo sapiens, U-87 MG): 8.15

Cc1cccc(C)c1C(=O)N1CCC(C)(N2CCC(Cc3ccc(C(F)(F)F)cc3)CC2)CC1
pIC50 (U-87 MG; Homo sapiens, U-87 MG): 9.00

C=C(c1ccc(Br)cc1)C1CCN(C2(C)CCN(C(=O)c3c(C)cccc3C)CC2)CC1
pIC50 (U-87 MG; Homo sapiens, U-87 MG): 9.00
AUC (Rattus norvegicus): 590 ng·h/mL

Cc1cccc(C)c1C(=O)N1CCC(C)(N2CCC(/C(=N/OC(C)C)c3ccc(Br)cc3)CC2)CC1
pIC50 (U-87 MG; Homo sapiens, U-87 MG): 8.77
AUC (Rattus norvegicus): 1700 ng·h/mL

COc1ccc(S(=O)(=O)c2ccc(CC3CCN(C4CCN(C(=O)c5ccc(F)c6ccccc56)CC4)CC3)cc2)cc1
pKi [1]: 8.89

CO/N=C(\c1ccc(Br)cc1)C1CCN(C2(C)CCN(C(=O)c3c(C)cccc3N)CC2)CC1
pIC50 (U-87 MG; Homo sapiens, U-87 MG): 9.30
AUC (Rattus norvegicus): 1300 ng·h/mL

Cc1cccc(C)c1C(=O)N1CCC(C)(N2CCC(Cc3ccccc3Br)CC2)CC1
pIC50 (U-87 MG; Homo sapiens, U-87 MG): 5.89

CCO/N=C(\c1ccc(Br)cc1)C1CCN(C2(C)CCN(C(=O)c3c(C)cc(C)nc3O)CC2)CC1
pIC50 (U-87 MG; Homo sapiens, U-87 MG): 8.19

CCO/N=C(\c1ccc(Br)cc1)C1CCN(C2(C)CCN(C(=O)c3c(C)cc(O)nc3C)CC2)CC1
pIC50 (U-87 MG; Homo sapiens, U-87 MG): 9.05
AUC (Rattus norvegicus): 210 ng·h/mL

Cc1ccc(CC2CCN(C3(C)CCN(C(=O)c4c(C)cccc4C)CC3)CC2)cc1
pIC50 (U-87 MG; Homo sapiens, U-87 MG): 7.42

Cc1cccc(C)c1C(=O)N1CCC(C)(N2CCC(Cc3cccc(Br)c3)CC2)CC1
pIC50 (U-87 MG; Homo sapiens, U-87 MG): 7.39

CO/N=C(/c1ccc(Br)cc1)C1CCN(C2(C)CCN(C(=O)c3c(C)cccc3C)CC2)CC1
pIC50 (U-87 MG; Homo sapiens, U-87 MG): 8.55
AUC (Rattus norvegicus): 1200 ng·h/mL

Cc1cccc(C)c1C(=O)N1CCC(C)(N2CCC(Cc3ccc(OC(F)(F)F)cc3)CC2)CC1
pIC50 (U-87 MG; Homo sapiens, U-87 MG): 8.30

CCO/N=C(\c1ccc(Br)cc1)C1CCN(C2(C)CCN(C(=O)c3c(C)ccc[n+]3[O-])CC2)CC1
pIC50 (U-87 MG; Homo sapiens, U-87 MG): 8.77
AUC (Rattus norvegicus): 3200 ng·h/mL

CCO/N=C(\c1ccc(OC(F)(F)F)cc1)C1CCN(C2(C)CCN(C(=O)c3c(C)cc[n+]([O-])c3C)CC2)CC1
pIC50 (U-87 MG; Homo sapiens, U-87 MG): 8.74
AUC (Rattus norvegicus): 3000 ng·h/mL

CO/N=C(\c1ccc(C(F)(F)F)cc1)C1CCN(C2(C)CCN(C(=O)c3c(C)cc[n+]([O-])c3C)CC2)CC1
pIC50 (U-87 MG; Homo sapiens, U-87 MG): 8.96
AUC (Rattus norvegicus): 350 ng·h/mL

CCO/N=C(\c1ccc(Br)cc1)C1CCN(C2(C)CCN(C(=O)c3c(F)cccc3C(F)(F)F)CC2)CC1
pIC50 (U-87 MG; Homo sapiens, U-87 MG): 8.68
AUC (Rattus norvegicus): 2700 ng·h/mL

CO/N=C(\c1ccc(Br)cc1)C1CCN(C2(C)CCN(C(=O)c3c(C)ccnc3C)CC2)CC1
pIC50 (U-87 MG; Homo sapiens, U-87 MG): 9.30
AUC (Rattus norvegicus): 1900 ng·h/mL

Cc1cccc(C)c1C(=O)N1CCC(C)(N2CCC(C(O)c3ccc(Br)cc3)CC2)CC1 (stereo unspecified)
pIC50 (U-87 MG; Homo sapiens, U-87 MG): 7.12

CCO/N=C(\c1ccc(Br)cc1)C1CCN(C2(C)CCN(C(=O)c3c(C)cccc3C)CC2)CC1
pIC50 (U-87 MG; Homo sapiens, U-87 MG): 8.96
AUC (Rattus norvegicus): 1000 ng·h/mL

CCO/N=C(/c1ccc(Br)cc1)C1CCN(C2(C)CCN(C(=O)c3c(C)cccc3C)CC2)CC1
pIC50 (U-87 MG; Homo sapiens, U-87 MG): 8.04

Cc1cccc(C)c1C(=O)N1CCC(C)(N2CCC(/C(=N/OC(C)(C)C)c3ccc(Br)cc3)CC2)CC1
pIC50 (U-87 MG; Homo sapiens, U-87 MG): 8.24

CCO/N=C(\c1ccc(Cl)cc1)C1CCN(C2(C)CCN(C(=O)c3c(C)cc[n+]([O-])c3C)CC2)CC1
pIC50 (U-87 MG; Homo sapiens, U-87 MG): 8.85
AUC (Rattus norvegicus): 1700 ng·h/mL

CCO/N=C(\c1ccc(Br)cc1)C1CCN(C2(C)CCN(C(=O)c3cccnc3C)CC2)CC1
pIC50 (U-87 MG; Homo sapiens, U-87 MG): 8.85

CO/N=C(\c1ccc(Br)cc1)C1CCN(C2(C)CCN(C(=O)c3c(C)cccc3C)CC2)CC1 (stereo in doubt)
pIC50 (U-87 MG; u-87mg atcc): 8.85
AUC (Rattus norvegicus): 2100 ng·h/mL

CO/N=C(\c1ccc(Br)cc1)C1CCN(C2(C)CCN(C(=O)c3c(C)cccc3C)CC2)CC1 (stereo in doubt; 14c (Z))
pIC50 (U-87 MG; Homo sapiens, U-87 MG): 8.92
AUC (Rattus norvegicus): 1400 ng·h/mL

CCO/N=C(\c1ccc(Br)cc1)C1CCN(C2(C)CCN(C(=O)c3c(C)cc[n+]([O-])c3C)CC2)CC1 [ANCRIVIROC]
clearance [2]: 12.8 mL/min/kg
Tmax [3]: 0.5 h
Cmax [4]: 2500 nM
clearance [5]: 4.28 mL/min/kg
Tmax [6]: 2 h
bioavailability [7]: 52%
bioavailability [8]: 63%
Fa [9]: 57%
half-life [10]: 5.4 h
half-life [11]: 6 h
Fa [12]: 80%
Cmax [13]: 760 nM
pIC50 (U-87 MG; Homo sapiens, U-87 MG): 9.22
AUC (Rattus norvegicus): 6500 ng·h/mL
